From patent US10183022B2, “Pharmaceutical composition for treating ulcerative colitis” (EA Pharma Co., Ltd., priority 2014, dated 2019)
“And” between values parts separate entries of the source, which are not always exact repeats. Identical values can stand only once.

Assays:
[1] = test system: ulcerative colitis patients in an active stage; assay: Clinical study, 960 mg orally 3 times a day for 8 weeks: adverse events; assay type: in vivo, human
Procedure: (§1) The compound of Example 1 or the compound of Comparative Example 1 was orally administered after meals 3 times a day. The number of the given tablets was 8 per administration (i.e., the amount of the compound (1) of Example 1 administered was 960 mg per administration). The administration period was 8 weeks. The compounds were administered until the timing after the breakfast on the day before the assessment day at Week 8.

[2] = test system: ulcerative colitis patients in an active stage; assay: Clinical study, 960 mg orally 3 times a day for 8 weeks: Mayo score, partial Mayo score, response rate, remission rate; assay type: in vivo, human; set-up: key to Mayo score, Mean / Mayo score, Minimum / Mayo score, Maximum / Mayo score, Upper quartile / Mayo score, Median / Mayo score, Lower quartile: Mayo score = total of 4 subscores (stool, bloody stool, mucosa, global); key to Mayo score, difference in mean between Example 1 and Comparative Example 1: Mayo score points (total of 4 subscores)
Procedure: A tablet comprising 120 mg of the compound of the formula (1) was coated with a film. Thus, a film-coated tablet was prepared (compound of Example 1).
as §1
As the subjects, 102 cases (Comparative Example 1: 51 cases, Example 1: 51 cases) were analyzed for assessment items to be described later.
The investigators or sub-investigators assessed subscores (“stool frequency,” “bloody stool,” “mucosal finding,” and “physician's global assessment”) of the Mayo score according to (1) to (4) below. A Mayo score was a total value of four subscore items of “stool frequency,” “bloody stool,” “mucosal finding,” and “physician's global assessment.” Meanwhile, a partial Mayo score was a total value of three subscore items of the Mayo score excluding “mucosal finding.” Note that, for the Mayo score and the partial Mayo score at Week 0, scores obtained at the time of the eligibility determination were used.
A proportion of subjects satisfying the following conditions (a) and (b) (response rate): • (a) the Mayo score was reduced by 30% or more and by 3 points or more in comparison with that at Week 0; and • (b) the subscore for bloody stool was reduced by 1 point or more in comparison with that at Week 0 or was 1 point or less.
Regarding the response rate (proportion of response cases) (Week 8), Example 1 was compared with Comparative Example 1 by setting a logistic regression model using the following adjusting factors as covariates to conduct a superiority test.
• 1. either subjects on whom a 5-ASA preparation (including a SASP preparation) or a corticosteroid preparation has an insufficient effect or who are intolerant to a 5-ASA preparation (including a SASP preparation) or a corticosteroid preparation; and • 2. the Mayo scores (6 points or more but 7 points or less, 8 points or more but 10 points or less) on the eligibility verification day. (1) Main Analysis
Using the response rate at Week 8 as a primary endpoint, a main effect model was set as the main analysis.
A remission rate is a proportion of subjects each having a Mayo score of 2 points or less with the individual subscores of 1 point or less.

[3] = 960 mg orally 3 times a day for 8 weeks

## COC(=O)[C@H](Cc1ccc(-n2c(=O)c3cc(N(C)C)ccc3n(C)c2=O)cc1)NC(=O)c1c(Cl)cccc1Cl [Example 1, methyl(2S)-2-(2,6-dichlorobenzamide)-3-{4-[6-(dimethylamino)-1-methyl-2,4-dioxo-1,4-dihydroquinazolin-3(2H)-yl]phenyl}propanoate]
[1]; [3]
  Safety (adverse event analysis): no problem in safety
[1]; 8-week study period
  Severe adverse events: no severe adverse event occurred
[1]; 8-week study period (2/51 cases)
  Incidence rate of moderate adverse events: 3.9%
[2]; [3]
  Response rate in comparison with Comparative Example (placebo): significantly improved
[2]; 3 months or more but less than 6 months after remission induction therapy started (6/10 cases)
  Response rate: 60.0%
[2]; 6 months or more after remission induction therapy started (5/11 cases)
  Response rate: 45.5%
[2]; Mayo score 6 points or more but 7 points or less (15/20 cases)
  Response rate: 75.0%
[2]; Mayo score 8 points or more but 10 points or less (17/31 cases)
  Response rate: 54.8%
[2]; Week 0
  Mayo score, Lower quartile: 7.0
  Mayo score, Maximum: 10
  Mayo score, Mean: 7.8±1.2 and 7.8
  Mayo score, Median: 8.0
  Mayo score, Minimum: 6
  Mayo score, Upper quartile: 9.0
  Partial Mayo score, Lower quartile: 5.0
  Partial Mayo score, Maximum: 8
  Partial Mayo score, Mean: 5.7±1.1 and 5.7
  Partial Mayo score, Median: 6.0
  Partial Mayo score, Minimum: 4
  Partial Mayo score, Upper quartile: 6.0
[2]; Week 2
  Partial Mayo score, Lower quartile: 3.0
  Partial Mayo score, Maximum: 8
  Partial Mayo score, Mean: 4.4±1.7 and 4.4
  Partial Mayo score, Median: 5.0
  Partial Mayo score, Minimum: 0
  Partial Mayo score, Upper quartile: 6.0
  Partial Mayo score, difference in mean between Example 1 and Comparative Example 1: −0.55
[2]; Week 4
  Partial Mayo score, Lower quartile: 2.0
  Partial Mayo score, Maximum: 8
  Partial Mayo score, Mean: 3.5±2.0 and 3.5
  Partial Mayo score, Median: 3.0
  Partial Mayo score, Minimum: 0
  Partial Mayo score, Upper quartile: 5.0
  Partial Mayo score, difference in mean between Example 1 and Comparative Example 1: −1.16
[2]; Week 8
  Difference in remission rates, Example 1 vs Comparative Example 1 (placebo): 19.6%
  Difference in response rates, Example 1 vs Comparative Example 1 (placebo): 37.3%
  Mayo score, Lower quartile: 2.0
  Mayo score, Maximum: 9
  Mayo score, Mean: 4.0±2.4 and 4.0
  Mayo score, Median: 4.0
  Mayo score, Minimum: 0
  Mayo score, Upper quartile: 5.0
  Mayo score, difference in mean between Example 1 and Comparative Example 1: −2.14
  Partial Mayo score, Lower quartile: 2.0
  Partial Mayo score, Maximum: 8
  Partial Mayo score, Mean: 3.1±2.1 and 3.1
  Partial Mayo score, Median: 3.0
  Partial Mayo score, Minimum: 0
  Partial Mayo score, Upper quartile: 4.0
  Partial Mayo score, difference in mean between Example 1 and Comparative Example 1: −1.63
[2]; Week 8, 51 cases analyzed
  Remission cases: 12
  Response cases: 32
[2]; Week 8, all subjects
  Remission rate: 23.5%
  Response rate: 62.7%
[2]; Week 8, logistic regression model
  Estimate of odds ratio of Example 1 to Comparative Example 1 (placebo group), response rate: 5.35
[2]; body weight 50 kg or more and disease period less than 5 years (7/22 cases)
  Remission rate: 31.8%
[2]; body weight 50 kg or more and disease period less than 5 years (16/22 cases)
  Response rate: 72.7%
[2]; body weight 50 kg or more but less than 60 kg (9/13 cases)
  Response rate: 69.2%
[2]; body weight less than 50 kg (5/9 cases)
  Response rate: 55.6%
[2]; disease for 1 year or more but less than 5 years (13/21 cases)
  Response rate: 61.9%
[2]; disease for 5 years or more (13/24 cases)
  Response rate: 54.2%
[2]; disease for less than 1 year (6/6 cases)
  Response rate: 100.0%
[2]; disease occurring for the first time (3/5 cases)
  Response rate: 60.0%
[2]; disease relapsing (29/46 cases)
  Response rate: 63.0%
[2]; females (13/20 cases)
  Response rate: 65.0%
[2]; left-sided colitis subjects (19/29 cases)
  Response rate: 65.5%
[2]; less than 1 month after remission induction therapy started (8/13 cases)
  Response rate: 61.5%
[2]; males (19/31 cases)
  Response rate: 61.3%
[2]; most active site at S or Rs and disease period less than 5 years (9/10 cases)
  Response rate: 90.0%
[2]; most active site of mucosal inflammation at Ra or Rb (15/28 cases)
  Response rate: 53.6%
[2]; most active site of mucosal inflammation at S or Rs (17/23 cases)
  Response rate: 73.9%
[2]; not receiving enema agent or suppository therapy in the active stage this time (21/34 cases)
  Response rate: 61.8%
[2]; pancolitis subjects (13/22 cases)
  Response rate: 59.1%
[2]; received enema agent or suppository therapy but terminated due to insufficient effect (11/17 cases)
  Response rate: 64.7%
[2]; relapsing subjects, disease period less than 5 years (16/22 cases)
  Response rate: 72.7%
[2]; relapsing subjects, stool frequency 6 times or less per day (25/32 cases)
  Response rate: 78.1%
[2]; stool frequency 6 times or less per day and disease period less than 5 years (16/20 cases)
  Response rate: 80.0%
[2]; stool frequency 6 times or less per day before administration (28/37 cases)
  Response rate: 75.7%
[2]; stool frequency 7 times or more per day before administration (4/14 cases)
  Response rate: 28.6%
[2]; subjects intolerant to a 5-ASA preparation (2/2 cases)
  Response rate: 100.0%
[2]; subjects intolerant to a corticosteroid preparation (0/1 case)
  Response rate: 0.0%
[2]; subjects on whom a 5-ASA preparation had an insufficient effect (28/46 cases)
  Response rate: 60.9%
[2]; subjects on whom a corticosteroid preparation had an insufficient effect (2/2 cases)
  Response rate: 100.0%
